We go through three compounds from patent publication US8394794B2, “Therapeutic compounds” (Regents of The University of Minnesota, priority 2007, dated 2013).

Molecules are shown by their SMILES. Like-named read-outs stand apart in the source and are kept apart here. A value given as a limit tells only on which side of the number the result lay.

The target of one series is T1, Bcl-2 (Homo sapiens, UniProt P10415).
T1 construct: made in house
Kind of series: Fluorescence polarization (FP) competition binding assay, Bcl-2. The note with it: Table 1. Here is the method:
This was done by using the FP based competition binding assay (see below).
The binding interactions of the test compound with Bcl-2, Bcl-XL and Bcl-w proteins were evaluated using the respective recombinant proteins. […] The assays were conducted via an optimized protocol established in the laboratory using a GENios Pro plate reader (Tecan US, NC) with all assays performed in triplicate, each assay performed twice (see Doshi, J. M.; Tian, D.; Xing, C. J. Med. Chem. 2006, 49, 7731).

The next series has as its target T2, Bcl-XL (Homo sapiens, UniProt Q07817).
T2 construct: made in house
Kind of series: Fluorescence polarization (FP) competition binding assay, Bcl-XL. From the text:
(§1) With the stability improved, the mechanism of action of compound 1 was studied to determine whether compound 1 would retain the same mechanism of HA 14-1 as an antagonist against anti-apoptotic Bcl-2 proteins. Table 1 summarizes the binding interaction of compound 1 with three anti-apoptotic Bcl-2 proteins by following an established fluorescence polarization competition assay (see Doshi, J. M.; Tian, D.; Xing, C. J. Med. Chem. 2006, 49, 7731-7739).
(§2) To explore whether compound 3 functioned the same as HA 14-1 in inducing cell death, compound 3 was tested for its binding interactions with recombinant Bcl-2, Bcl-XL, and Bcl-w proteins. This was done by using the FP based competition binding assay (see below).
(§3) The binding interactions of the test compound with Bcl-2, Bcl-XL and Bcl-w proteins were evaluated using the respective recombinant proteins. The preparation of these recombinant Bcl-2 proteins and fluorescently labeled Bak peptide has been detailed previously (see Doshi, J. M.; Tian, D.; Xing, C. J. Med. Chem. 2006, 49, 7731). The assays were conducted via an optimized protocol established in the laboratory using a GENios Pro plate reader (Tecan US, NC) with all assays performed in triplicate, each assay performed twice (see Doshi, J. M.; Tian, D.; Xing, C. J. Med. Chem. 2006, 49, 7731).

The target of the next series is T3, Bcl-w (Homo sapiens, UniProt Q92843).
T3 construct: made in house
T3 sequence (Q92843 1-193): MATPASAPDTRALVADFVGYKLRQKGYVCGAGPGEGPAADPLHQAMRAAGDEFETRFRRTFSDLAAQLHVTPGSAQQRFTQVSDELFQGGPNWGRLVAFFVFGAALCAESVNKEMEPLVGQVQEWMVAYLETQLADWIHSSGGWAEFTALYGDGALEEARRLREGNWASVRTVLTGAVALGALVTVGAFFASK
Kind of series: Fluorescence polarization (FP) competition binding assay, Bcl-w.
Excerpt: as §1, §2, §3

For series [1], the system named is Jurkat cells. Kind of series: In vitro cytotoxicity assay (GI50) with fresh and incubated samples. The format is cell-based. The note with it: for increase of GI50 after incubation: 24-hour incubation in cell culture media at 37° C., FIG. 1; for loss of cytotoxicity after incubation: one hour incubation, FIG. 6. Here is the method:
Compound 1 (Example 2) was first evaluated for its stability under physiological conditions. In brief, compound 1 was incubated in cell culture media at 37° C. for 24 hours and the in vitro cytotoxicity was determined. HA 14-1 was run in parallel for comparison.
The stability of compound 3 (Example 1) was evaluated using the in vitro cytotoxicity assay described below.
The in vitro cytotoxicity of the test compound was assayed by determining the GI50s (the concentration of the compound required to inhibit cell growth by 50%). In brief, Jurkat cells at a density of 10^4 cells/well were plated in a 96-well plate. A series of 3-fold dilution of the test compound with 1% DMSO in the final cell media was used for the cell treatment (cells treated with media containing 1% DMSO served as a control). An identical set of the test compounds was incubated at 37° C. for the specified time and used along with freshly prepared samples for the cell-viability assay. After 24-hour treatment, the relative cell viability in each well was determined by using CellTiter-Blue Cell Viability Assay kit (a fluorescence assay that measures the reduction of a dye (resazurin) into a fluorescent end product (resorufin) by metabolically active cells—viable cells) (Promega, CA). The GI50 of each candidate was determined by fitting the relative viability of the cells to the drug concentration by using a dose-response model in GraphPad software.

The subject of series [2] is Jurkat cells. Kind of series: Sensitization of Jurkat cells to doxorubicin (combination cytotoxicity). It counts as cell-based. The settings on record: for synergism with doxorubicin: combination vs each alone, FIG. 4. Here is the method: Finally, compound 1 was analyzed for its capability in sensitizing tumor cells to standard chemotherapies. As HA 14-1 was established to sensitize various tumor cells to doxorubicin, compound 1 was tested in parallel with HA 14-1 for the potential synergism to doxorubicin in Jurkat cells. Briefly, the cytotoxicity of doxorubicin alone, compound 1 alone, or the combination of both to Jurkat cells were evaluated. […] This study established that compound 1 can function as a chemosensitizer in combination cancer therapy. The synergism of compound 1 was further supported by the dose-response potentiation of doxorubicin (FIG. 5).

A short description of series [3]: Half-life under varying pH conditions. The format is physicochemical. The note with it: buffer.
The test system of series [4] is Jurkat cells (normal, over-expressing Bcl-2, or over-expressing Bcl-XL). The settings on record: Jurkat over-expressing Bcl-2 or Bcl-XL; from Doshi et al. J. Med. Chem. 2006; cited from earlier work.
Series [5] shares this test system. Kind of series: In vitro cytotoxicity against three Jurkat cell lines (drug resistance). The format is cell-based. The settings on record: Jurkat normal vs Bcl-2 or Bcl-XL over-expressing; FIG. 3, FIG. 7. On the procedure:
Compound 1 was further studied for its capability to overcome drug resistance induced by the over-expression of anti-apoptotic Bcl-2 proteins. Specifically, the in vitro cytotoxicity of compound 1 against three Jurkat cells (normal, over-expressing Bcl-2, or over-expressing Bcl-XL) were evaluated.
The ability of compound 3 to overcome the drug resistance induced by the over-expression of anti-apoptotic Bcl-2 proteins by evaluating its cytotoxicity in Bcl-2 or Bcl-XL over-expressing Jurkat cells was also evaluated.
The in vitro cytotoxicity of the test compound was assayed by determining the GI50s (the concentration of the compound required to inhibit cell growth by 50%). In brief, Jurkat cells at a density of 10^4 cells/well were plated in a 96-well plate. A series of 3-fold dilution of the test compound with 1% DMSO in the final cell media was used for the cell treatment (cells treated with media containing 1% DMSO served as a control). An identical set of the test compounds was incubated at 37° C. for the specified time and used along with freshly prepared samples for the cell-viability assay. […]

A short description of series [6]: HPLC analysis of decomposition in cell culture media. It counts as physicochemical. The settings on record: 48-hour incubation in cell culture media at 37° C.
Another series has as its system caspase-3/-7. Kind of series: Concentration-dependent activation of caspase-3/-7 / mode of cell death. The format is cell-based. The settings on record: 24 hours treatment; FIG. 2. On the procedure:
Compound 1 was further analyzed for its mechanism to inhibit cell growth as HA 14-1 does. This was characterized for concentration-dependent activation of caspase-3/-7. HA 14-1 was run in parallel for comparison. […] Mechanistically, however, compound 1 induced cell death through two different pathways depending on its concentration, similar to HA 14-1. Between 50-100 μM, compound 1 induces apoptosis as characterized by caspase-3/-7 activation. On the other hand, at >100 μM, compound 1 induced non-apoptotic cell death (no activation of caspase-3/-7). The induction of cell death through apoptosis and non-apoptotic process was further supported by DNA fragmentation studies.

Where [7] appears, read: Table 3, mean of two independent experiments with triplicate in each, read-out: Ki ± SEM Bcl-w.

T2 sequence (Q07817 whole entry, species assumed): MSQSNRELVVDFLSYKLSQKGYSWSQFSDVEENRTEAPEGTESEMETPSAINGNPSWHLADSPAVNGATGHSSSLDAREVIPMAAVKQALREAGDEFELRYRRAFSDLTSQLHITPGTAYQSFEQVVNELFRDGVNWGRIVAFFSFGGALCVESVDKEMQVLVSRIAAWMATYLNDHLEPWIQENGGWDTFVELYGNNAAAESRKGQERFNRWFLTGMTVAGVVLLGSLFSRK
T1 sequence (P10415 whole entry, species assumed): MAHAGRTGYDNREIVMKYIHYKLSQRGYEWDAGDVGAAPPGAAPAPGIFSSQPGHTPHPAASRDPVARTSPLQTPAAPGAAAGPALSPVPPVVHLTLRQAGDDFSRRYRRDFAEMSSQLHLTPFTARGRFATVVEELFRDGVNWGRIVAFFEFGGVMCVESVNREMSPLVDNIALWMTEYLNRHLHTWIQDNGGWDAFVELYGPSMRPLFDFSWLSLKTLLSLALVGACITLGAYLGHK

As for `CCOC(=O)C1=C(N)Oc2ccc(Br)cc2C1C(C#N)C(=O)OCC` (stereo not drawn) [HA 14-1, reference compound], the Ki at Bcl-2 was 169 ± 18.9 µM; on Bcl-XL (Table 1, read-out: Ki Bcl-XL), 58.9 ± 5.3 µM; at Bcl-w (Table 1, read-out: Ki Bcl-w), 59.3 ± 5.3 µM; on Bcl-w (setting [7]), 59.3 ± 5.32 µM. The “increase of GI50 after incubation” value in the series on Jurkat cells [1] is listed as approximately 35 fold. Moreover, the “loss of cytotoxicity after incubation” value in the series on Jurkat cells [1] came out at 10 fold. The synergism with doxorubicin entry in the series with Jurkat cells [2] is on record as “able to synergize doxorubicin”. Besides, the half-life in series [3] (pH 6.0) is 2.09 h; in series [3] (pH 7.0) it was 1.86 h; in series [3] (pH 8.0), 1.22 h. For the same compound, the “resistance induced by over-expression of Bcl-2 or Bcl-XL” value (from here on “resistance induced by over-expression”) in series [4] is recorded as “show no resistance”.
For the compound `CCOC(=O)C1=C(N)Oc2ccc(Br)cc2C1C(C)(C#N)C(=O)OCC` (stereo not drawn) [Compound 3, Ethyl-2-amino-6-bromo-4-(2-cyano-1-ethoxy-1-oxopropan-2-yl)-4H-chromene-3-carboxylate], the Ki at Bcl-XL (Table 3, mean of two independent experiments with triplicate in each, read-out: Ki ± SEM Bcl-XL) amounted to 55.4 ± 0.88 µM; at Bcl-w (setting [7]), 49.4 ± 1.76 µM. Besides, the “loss of cytotoxicity after incubation” value in the series on Jurkat cells [1] worked out at 2.5 fold. In [5], the “resistance induced by over-expression” value is “unable to induce any noticeable resistance”. For the same compound, the half-life in [3] (pH 6.0) worked out at 2.75 h.
In the case of `CCOC(=O)CC1C(C(=O)OCC)=C(N)Oc2ccc(Br)cc21` (stereo not drawn) [Compound 1, Ethyl-2-amino-6-bromo-4-(2-ethoxy-2-oxoethyl)-4H-chromene-3-carboxylate], the Ki on Bcl-2 came out at 858 µM; at Bcl-XL (Table 1, read-out: Ki Bcl-XL), 390 µM; at Bcl-w (Table 1, read-out: Ki Bcl-w) it was 686 µM. Besides, the “increase of GI50 after incubation” value in the series on Jurkat cells [1] turned out to be 1.2 fold. The “cytotoxicity (inhibition of cell growth) compared with HA 14-1” value in the series with Jurkat cells [1] (24 hours treatment, FIG. 2) was “less cytotoxic than HA 14-1”. Besides, the “decomposition by HPLC” value in series [6] is “no decomposition was detected”. For the same compound, the “concentration inducing apoptosis (caspase-3/-7 activation)” value in the series with caspase-3/-7 fell in the range of 50 to 100 µM. Moreover, the “concentration inducing non-apoptotic cell death (no activation of caspase-3/-7)” value in the series on caspase-3/-7 is more than 100 µM. Also, in series [5], the “resistance induced by over-expression” value is listed as “induced no resistance”. In addition, the potentiation of doxorubicin with Jurkat cells [2] (30 μM compound, FIG. 5) was 1.4 fold. The synergism with doxorubicin result in the series with Jurkat cells [2] is listed as “able to synergize doxorubicin”.
